Assay [1] concerns phospho-akt (Thr308) in PC-3 cells. The assay can be described thus: Inhibition of phospho-akt (Thr308) in PC-3 cells, MSD phospho-akt 308 ELISA kit. The note with it: Homo sapiens, 2 hours, no serum, read-out: EC50. Type of assay: cell-based. Summed up: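 Serum-free 2 h compound exposure of overnight-seeded PC-3 cells, threefold dilution series; lysates analysed on blocked MSD plates (3% BSA) for Thr308-phosphorylated Akt, normalised between DMSO and 5 μM wortmannin wells.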
On the technique in general: An ELISA detects its analyte on a solid surface through an enzyme-linked reagent.

The next assay concerns the target PDK1 (Homo sapiens (Human), UniProt O15530). Kind of assay: PDK1 kinase assay (coupled PDK1/AKT/FAM-crosstide assay, IMAP fluorescence polarization). Type of assay: biochemical. Summed up:
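PDK1 activity is measured indirectly through activation of a PIFtide-fused AKT2 construct that phosphorylates FAM-crosstide (100 nM). The reaction uses 0.75 nM PDK1, 40 μM ATP, 30 min, 25° C, with IMAP polarization detection.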
In general terms: In fluorescence polarisation assays a small probe gives low polarisation when free and higher when bound to something large.

The mark [2] stands for this setting: inhibition of P308 Akt in PC-3 cells, MSD.
Where [3] appears, read: inhibition of phospo-PDK1 in vitro.
Setting [4] is: inhibition of P308 Akt in PC-3 cells using MSD.

Where a name gives a salt, the structure may show the parent alone. Read-outs that look alike come from different tables or passages of the source.

Sequence of PDK1 (O15530 51-359): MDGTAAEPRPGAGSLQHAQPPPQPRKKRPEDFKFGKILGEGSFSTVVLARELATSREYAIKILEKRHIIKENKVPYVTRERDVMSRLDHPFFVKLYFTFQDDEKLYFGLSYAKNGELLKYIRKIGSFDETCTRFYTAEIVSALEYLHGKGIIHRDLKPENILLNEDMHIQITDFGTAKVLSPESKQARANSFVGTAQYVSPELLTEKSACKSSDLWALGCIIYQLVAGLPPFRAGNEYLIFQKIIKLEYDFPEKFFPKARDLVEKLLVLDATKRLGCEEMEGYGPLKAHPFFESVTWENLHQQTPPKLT

`CN(C)CC(=O)Nc1cnc(NCc2ccc(-c3ccc4ncnc(N)c4c3)s2)c(C(=O)NCc2ccc(F)c(F)c2)c1` [Example 8.5.8, 2-({[5-(4-aminoquinazolin-6-yl)thiophen-2-yl]methyl}amino)-N-(3,4-difluorobenzyl)-5-[(N,N-dimethylglycyl)amino] pyridine-3-carboxamide]: in assay [1] (setting [2]), the EC50 – broadly, the concentration giving half of the maximal effect – lay within 1 to 10 µM. For the same compound, the IC50 (commonly the concentration that inhibits the measured activity by half) against PDK1 (setting [3]) is 0.1 to 1 µM.
On to `C[C@H](NC(=O)c1cc(C#N)cnc1NCc1ccc(-c2c[nH]nc2N)cc1)c1ccc(F)cc1` [Example 142, (S)-2-(4-(3-amino-1H-pyrazol-4-yl)benzylamino)-5-cyano-N-(1-(4-fluorophenyl)ethyl) nicotinamide], for which the EC50 in assay [1] (setting [4]) is 1 to 10 µM. The compound also returned a half-inhibitory concentration (IC50) against PDK1 (inhibition of PDK1 in vitro) of more than 5 µM.
For `C[C@H](NC(=O)c1cc(C#N)cnc1NCc1ccc(-c2cnc3[nH]nc(N)c3c2)nc1)c1ccc(F)cc1` [Example 66, 2-{[6-(3-Amino-1H-pyrazolo[3,4-b]pyridin-5-yl)-pyridin-3-ylmethyl]-amino}-5-cyano-N-[(S)-1-(4-fluoro-phenyl)-ethyl]-nicotinamide] the same measures were less than 1 µM and less than 0.1 µM.
For `Nc1ncnc2[nH]cc(-c3ccc(CNc4ncc(C(F)(F)F)cc4C(=O)NCc4ccc(F)c(F)c4)cc3)c12` [Example 330, 2-[4-(4-Amino-7H-pyrrolo [2,3-d]pyrimidin-5-yl)-benzylamino]-N-(3,4-difluoro-benzyl)-5-trifluoromethyl-nicotinamide] the same measures were less than 1 µM and less than 0.1 µM.
`N#Cc1cnc(NCc2ccc(-c3ccc4ncnc(N)c4c3)s2)c(C(=O)NCc2ccc(F)cc2)n1` [Example 3.83, 3-(((5-(4-aminoquinazolin-6-yl)thiophen-2-yl)methyl)amino)-6-cyano-N-(4-fluorobenzyl)pyrazine-2-carboxamide (TFA salt)]: the concentration for a half-maximal effect (EC50) in assay [1] (setting [2]) was less than 1 µM. On PDK1 (setting [3]), this compound came in with a concentration for half-maximal inhibition (IC50) of less than 0.1 µM.
On to `C[C@H](NC(=O)c1cc(C#N)cnc1N[C@H](CC(N)=O)c1ccc(-c2c[nH]c3ncnc(N)c23)cc1)c1ccc(F)cc1` [Example 46, 2-((R)-3-amino-1-(4-(4-amino-7H-pyrrolo[2,3-d]pyrimidin-5-yl)phenyl)-3-oxopropylamino)-5-cyano-N—((S)-1-(4-fluorophenyl)ethyl)nicotinamide], for which the EC50 in assay [1] (setting [4]) was more than 10 µM. Further, the IC50 against PDK1 (inhibition of PDK1 in vitro) was less than 0.1 µM.
As for `Cn1cnc2cnc3ccc(-c4ccc(CNc5ncc(C(F)(F)F)cc5C(=O)NCc5ccc(F)c(F)c5)s4)cc3c21` [Example 2.26, N-(3,4-difluorobenzyl)-2-(((5-(1-methyl-1H-imidazo[4,5-c]quinolin-8-yl)thiophen-2-yl)methyl)amino)-5-(trifluoromethyl)nicotinamide], the EC50 in assay [1] (setting [2]) is less than 1 µM. This compound also displayed a half-maximal inhibitory concentration (IC50) on PDK1 (setting [3]) of less than 0.1 µM.
For `C[C@H](NC(=O)c1cccnc1NCc1ccc(-c2ccc3ncc4ncn(C)c4c3c2)s1)c1ccc(F)cc1` [Example 2.18] the same measures were less than 1 µM and 0.1 to 1 µM.
Turning to `Nc1n[nH]c2ncc(-c3ccc(CNc4ncc(C(F)(F)F)cc4C(=O)Nc4ccc(C(F)(F)F)nc4)cc3)cc12` [Example 276, 2-(4-(3-amino-1H-pyrazolo [3,4-b]pyridin-5-yl)benzylamino)-5-(trifluoromethyl)-N-(6-(trifluoromethyl)pyridin-3-yl)nicotinamide], the EC50 in assay [1] (setting [4]) is 1 to 10 µM. Moreover, the concentration for half-maximal inhibition (IC50) on PDK1 (inhibition of PDK1 in vitro) was less than 0.1 µM.
With `Nc1n[nH]c2ncc(-c3ccc(CNc4ncc(C(F)(F)F)cc4C(=O)N[C@H](CO)c4ccc(F)cc4)cc3)cc12` [Example 266], the EC50 in assay [1] (setting [4]) was more than 10 µM. On PDK1 (inhibition of PDK1 in vitro), this compound returned an IC50 of 0.1 to 1 µM.
The like results for `Nc1ncc(-c2ccc(CNc3ncc(C(F)(F)F)cc3C(=O)Nc3ccc(F)cc3)cc2)nc1CC[C@@H]1CCCN1` [Example 75, 2-{4-[5-Amino-6-((S)-2-pyrrolidin-2-yl-ethyl)-pyrazin-2-yl]-benzylamino}-N-(4-fluoro-phenyl)-5-trifluoromethyl-nicotinamide] were, in that order, 1 to 10 µM and less than 0.1 µM.
The like results for `NCCCc1nc(-c2ccc(CNc3ncc(C(F)(F)F)cc3C(=O)NCc3ccc(F)c(F)c3)cc2)cnc1N` [Example 72, 2-{4-[5-Amino-6-(3-amino-propyl)-pyrazin-2-yl]-benzyl-amino}-N-(3,4-difluoro-benzyl)-5-trifluoromethyl-nicotinamide] were, in that order, 1 to 10 µM and less than 0.1 µM.
Turning to `COc1cnc(NCc2ccc(-c3ccc4ncnc(N)c4c3)s2)c(C(=O)NCc2ccc(F)c(F)c2)c1` [Example 8.1.2, 2-({[5-(4-aminoquinazolin-6-yl)thiophen-2-yl]methyl}amino)-N-(3,4-difluorobenzyl)-5-methoxypyridine-3-carboxamide], in assay [1] (setting [2]), the EC50 was less than 1 µM. The compound also displayed an IC50 against PDK1 (setting [3]) of less than 0.1 µM.
For the compound `CC(C)Oc1cc(CNc2ncccc2C(=O)N(C)c2ccc(F)cc2)cc(-c2c[nH]c3ncc(C(=O)NC4CC4)cc23)c1` [Example 4.1.9, N-cyclopropyl-3-{3-[({3-[(4-fluorophenyl)(methyl)carbamoyl]pyridin-2-yl}amino)methyl]-5-(propan-2-yloxy)phenyl}-1H-pyrrolo[2,3-b] pyridine-5-carboxamide], in assay [1] (setting [2]), the EC50 lay in the range of 1 to 10 µM. The compound also had a concentration for half-maximal inhibition (IC50) against PDK1 (setting [3]) of more than 5 µM.
The like results for `Nc1ncnc2ccc(-c3ccc(CNc4ncccc4C(=O)NCc4cccnc4)s3)cc12` [Example 3.37, 2-({[5-(4-aminoquinazolin-6-yl)thiophen-2-yl]methyl}amino)-N-(pyridin-3-ylmethyl) pyridine-3-carboxamide (TFA salt)] were, in that order, 1 to 10 µM and 0.1 to 1 µM.
As for `CC(C)Oc1cc(CNc2ncccc2C(=O)NCc2ccc(F)c(F)c2)cc(-c2ccc3ncncc3c2)c1` [Example 5.3, N-(3,4-difluorobenzyl)-2-(3-isopropoxy-5-(quinazolin-6-yl)benzylamino) nicotinamide], the concentration giving a half-maximal response (EC50) in assay [1] (setting [2]) is more than 10 µM. For the same compound, the IC50 against PDK1 (setting [3]) fell in the range of 0.1 to 1 µM.
With `Cc1cc(-c2ccc(CNc3ncc(C#N)cc3C(=O)N[C@@H](C)c3ccc(F)cc3)cc2)cnc1N` [Example 104, (S)-2-(4-(6-amino-5-methylpyridin-3-yl)benzylamino)-5-cyano-N-(1-(4-fluorophenyl)ethyl)nicotinamide], the EC50 in assay [1] (setting [4]) is less than 1 µM. This compound showed a concentration for half-maximal inhibition (IC50) on PDK1 (inhibition of PDK1 in vitro) of less than 0.1 µM.
On to `N#Cc1cnc(NCc2ccc(-c3cnc4[nH]nc(N)c4c3)cc2)c(C(=O)NCc2ccc(F)cc2)n1` [Example 33, 3-(4-(3-amino-1H-pyrazolo[3,4-b]pyridin-5-yl)benzylamino)-6-cyano-N-(4-fluorobenzyl) pyrazine-2-carboxamide], for which the EC50 in assay [1] (setting [2]) was less than 1 µM. In addition, the IC50 against PDK1 (setting [3]) was less than 0.1 µM.
As to `C[C@H](NC(=O)c1cc(C#N)cnc1NCc1ccc(-c2cnc(N)c(CO)n2)cc1)c1ccc(F)cc1` [Example 240, (S)-2-(4-(5-amino-6-(hydroxymethyl)pyrazin-2-yl)benzylamino)-5-cyano-N-(1-(4-fluorophenyl)ethyl)nicotinamide], the EC50 in assay [1] (setting [4]) is less than 1 µM. For the same compound, the half-inhibitory concentration (IC50) against PDK1 (inhibition of PDK1 in vitro) was less than 0.1 µM.
With `O=C(NCc1ccc(F)c(F)c1)c1cccnc1Nc1cccc(-c2cccn3c(=O)[nH]nc23)c1` [Example 17.3], the 50% effective concentration (EC50) in assay [1] (setting [2]) was more than 10 µM. In addition, on PDK1 (setting [3]), the concentration for half-maximal inhibition (IC50) was 0.1 to 1 µM.
In the case of `C[C@H](NC(=O)c1cc(C#N)cnc1NCc1ccc(-c2cnc3[nH]nc(CCCN)c3c2)cc1)c1ccc(F)cc1` [Example 150], the EC50 in assay [1] (setting [4]) was less than 1 µM. On PDK1 (inhibition of PDK1 in vitro), this compound showed an IC50 of less than 0.1 µM.
With `C[C@H](NC(=O)c1nc(C#N)cnc1NCc1ccc(-c2cn(CCCN(C)C)c3ncnc(N)c23)cc1)c1ccc(F)c(F)c1` [Example 316, (S)-3-(4-(4-amino-7-(3-(dimethylamino)propyl)-7H-pyrrolo[2,3-d]pyrimidin-5-yl)benzylamino)-6-cyano-N-(1-(3,4-difluoro-phenyl)ethyl)pyrazine-2-carboxamide], in assay [1] (setting [4]), the EC50 is 1 to 10 µM. At PDK1 (inhibition of PDK1 in vitro), this compound showed an IC50 of less than 0.1 µM.
The like results for `C[C@H](NC(=O)c1cc(C#N)cnc1NCc1ccc(-c2cnc(N)c(C#N)c2)cc1)c1ccc(F)cc1` [Example 115, (S)-2-(4-(6-amino-5-cyanopyridin-3-yl)benzylamino)-5-cyano-N-(1-(4-fluorophenyl)ethyl) nicotinamide] were, in that order, more than 10 µM and less than 0.1 µM.
As for `CCOC(=O)c1cnc(NCc2ccc(-c3ccc4ncnc(N)c4c3)s2)c(C(=O)NCc2ccc(F)c(F)c2)c1` [Example 7.23.2, Ethyl 6-({[5-(4-aminoquinazolin-6-yl)thiophen-2-yl]methyl}amino)-5-[(3,4-difluorobenzyl)carbamoyl]pyridine-3-carboxylate], in assay [1] (setting [2]), the 50% effective concentration (EC50) was less than 1 µM. On PDK1 (setting [3]), this compound displayed an IC50 of 0.1 to 1 µM.
For `C[C@H](NC(=O)c1nccnc1NCc1ccc(-c2ccc3ncnc(N)c3c2)s1)c1ccc(F)cc1` [Example 3.70, 3-({[5-(4-aminoquinazolin-6-yl)thiophen-2-yl]methyl}amino)-N-[(1S)-1-(4-fluorophenyl)ethyl] pyrazine-2-carboxamide (TFA salt)] the same measures were 1 to 10 µM and less than 0.1 µM.
The like results for `C=C(C)c1cnc(NCc2ccc(-c3ccc4ncnc(N)c4c3)s2)c(C(=O)NCc2ccc(F)c(F)c2)n1` [Ex. 10.5, 3-({[5-(4-aminoquinazolin-6-yl)thiophen-2-yl]methyl}amino)-N-(3,4-difluorobenzyl)-6-(prop-1-en-2-yl)pyrazine-2-carboxamide] were, in that order, 1 to 10 µM and less than 0.1 µM.

The values above are taken from patent publication US10030016B2 (Sunesis Pharmaceuticals, Inc., priority 2009, dated 2018).
